{"source": "patent US20080206819A1", "about": "“Intensified Perfusion Production Method” (priority 2006, published 2008)", "key": {"[1]": {"test_system": "Chinese hamster ovary (CHO) cell line", "assay": "Cell viability, traditional perfusion vs. RaMP (trypan blue staining)", "type": "cell-based", "protocol": "The production cell line used for all experiments is a CHO (Chinese Hamster Ovary) cell-derived cell line transfected with the desired construct to produce a recombinant IgG1 protein. For all of the experiments, the cell line was grown in the RBM12.1 media under selective pressure (100 μg/ml Hygromycin B and 500 nM methotrexate). The cells were seeded in at a density of 4×10^5 to 1×10^6 cells per milliliter, depending on bioreactor size. pH was kept at 7.1±0.05 and temperature was kept at 37° C.±0.5. The perfusion rate for both traditional perfusion and the methods of the invention (RaMP) was 1.0 to 2.0 volumes/day. The cell retention devices used were the hollow fiber system and/or the cell settler system. […] The cell settler system (retention by gravity) seem to overcome this problem. Sodium butyrate was introduced into the bioreactor after the cells reached the desired cell density (around 20 million cells/ml). Once sodium butyrate was introduced into the perfusion system, the cells were kept at that sodium butyrate condition until the next higher dose. This gradual ramping of sodium butyrate concentration was continued until the desired final concentration of sodium butyrate was reached. Once the desired sodium butyrate concentration is reached, the cells are grown in media in media containing the desired sodium butyrate concentration for the rest of the production run.\nThe mammalian host cell line used is a Chinese hamster ovary (CHO) cell line. This cell line has been transfected with the light and heavy chains of a chimeric IgG1 monoclonal antibody. The cells were grown in RBM12.1 medium under selective pressure (100 μg/ml Hygromycin B and 500 nM methotrexate (MTX). The medium used for this example contained the components in Table 1. Additional factors such as 10 μg/ml recombinant human insulin and 0.1% F68 are also added to the medium.\nDuring the growth period, the cultures were controlled at pH 7.1±0.05 by the use of CO2 gas (acid) and/or Na2CO3 (base). Temperature was controlled at 37°±0.5 Celsius. Oxygen level was maintained at about 100% air saturation. For the initial growth period, CO2 level was maintained at 5%. When the cell density reached […] cells/ml, CO2 gas to the culture was turned off. The osmolality of the culture was maintained between 325 to 400 mOsm with minimal osmolality drift.\nIn a typical production schedule, 5×10^5 to 1×10^6 cells were inoculated into the cell culture bioreactor. 1 to 1.5 volumes of media was perfused daily. Cell density and viability was monitored by pulling a sample from the bioreactor and counted using trypan blue staining for live/dead cells.\nTen days after inoculation, the production period was started with the gradual addition of sodium butyrate (Na butyrate) into the RaMP cultures. 1.5 volume of RBM12.1 medium with 1 mM Na butyrate was perfused into the biorector on day 1 of the production period. This concentration of Na butyrate was kept in the bioreactor using the RaMP method for the duration of the production period. For cells in the traditional perfusion method, RBM12.1 media without Na butyrate was perfused into the bioreactor at the same perfusion rate as used in the RaMP method. Cell viability was monitored daily."}, "[2]": {"test_system": "CHO (Chinese Hamster Ovary) cell-derived cell line", "assay": "Average daily specific productivity: perfusion, fed-batch and RaMP", "type": "cell-based", "settings": "for Average Daily Specific Productivity: 10 day production run", "source_text": "Average daily specific productivity was compared using traditional perfusion, fed-batch with sodium butyrate induction and RaMP processes. The same production cell line was used for all three methods. Culture conditions for all three methods were similar to those described in Example 1 above. Cells were inoculated at 5×10^5 cells/ml and were allowed to grow to the desired concentration before induction with sodium butyrate. Fed-batch culture was induced with sodium butyrate as a bolus addition. Fed-batch specific productivity calculations were normalized and averaged for new protein production per day. Average daily specific productivity was calculated using production yields from a 10 day production run. Maximal sodium butyrate concentration was 2 mM for both fed-batch and RaMP processes. Average daily yields using the RaMP method was approximately 6 times more than fed-batch or traditional perfusion methods."}, "[3]": {"test_system": "CHO (Chinese Hamster Ovary) cell-derived cell line", "assay": "Average daily recombinant protein production using RaMP, Example 5", "type": "cell-based", "protocol": "Samples of harvested media were taken from the daily harvest and frozen. At the end of the production run, the frozen daily samples were tested using an anti-IgG (recognizing only intact IgG) ELISA assay in order to determine the protein yields. FIG. 1 is a graphical representation of the average daily yield of recombinant protein from both traditional perfusion and RaMP methods.\n(§1) Cells were seeded at 5×10^5 cells/ml and were allowed to grow in the bioreactor for 6 days before the first harvest of recombinant protein on day 7. Conditions for this growth period are similar to those described in Example 1 above. Cells were grown in RBM12.1 media with a perfusion rate of 1 to 1.5 v/day. 1 mM sodium butyrate (final concentration) was added to perfusion medium and was perfused into the bioreactor on day 8. […] 2 mM sodium butyrate (final concentration) was added to the perfusion media and was perfused into the bioreactor on day 11. Cell viability was monitored daily by pulling samples from the bioreactor and trypan blue live/dead staining. Over the production run, the cell density reached upwards of 4.5×10^7 cells/ml. Using the RaMP method, the cell viability remained above 85% viable cells even with the sustained concentration of 2 mM sodium butyrate in the media. The average daily recombinant protein production reached over 0.6 g/L/day."}, "[4]": {"test_system": "recombinant CHO cells", "settings": "sodium butyrate added in fluidized bed bioreactor; cited from earlier work"}, "[5]": {"test_system": "recombinant CHO cells", "settings": "perfusion culture; end of the production run, in most cases; cited from earlier work"}, "[6]": {"test_system": "CHO (Chinese Hamster Ovary) cell-derived cell line", "assay": "Cell viability and cell density, Example 5 (RaMP)", "type": "cell-based", "protocol": "as §1"}}}
{"compound": "CCCC(=O)[O-].[Na+]", "note": "[sodium butyrate]", "values": [{"measurement": "% viable cells (RaMP)", "setting": "[1]; 1 mM Na butyrate perfused from start of production period, day 10", "value": 97, "unit": "%"}, {"measurement": "% viable cells (RaMP)", "setting": "[1]; 1 mM Na butyrate, day 11", "value": 97.6, "unit": "%"}, {"measurement": "% viable cells (RaMP)", "setting": "[1]; 1 mM Na butyrate, day 12", "value": 96.4, "unit": "%"}, {"measurement": "% viable cells (RaMP)", "setting": "[1]; 1 mM Na butyrate, day 13", "value": 97.1, "unit": "%"}, {"measurement": "% viable cells (RaMP)", "setting": "[1]; 1 mM Na butyrate, day 14", "value": 95.7, "unit": "%"}, {"measurement": "% viable cells (RaMP)", "setting": "[1]; 1 mM Na butyrate, day 15", "value": 96.1, "unit": "%"}, {"measurement": "% viable cells (RaMP)", "setting": "[1]; 1 mM Na butyrate, day 16", "value": 97.2, "unit": "%"}, {"measurement": "% viable cells (RaMP)", "setting": "[1]; 1 mM Na butyrate, day 17", "value": 96.4, "unit": "%"}, {"measurement": "% viable cells (RaMP)", "setting": "[1]; 1 mM Na butyrate, day 18", "value": 97, "unit": "%"}, {"measurement": "% viable cells (RaMP)", "setting": "[1]; 1 mM Na butyrate, day 19", "value": 96.9, "unit": "%"}, {"measurement": "% viable cells (RaMP)", "setting": "[1]; 1 mM Na butyrate, day 20", "value": 95.8, "unit": "%"}, {"measurement": "cell viability", "setting": "[1]; RaMP method, 1 mM Na butyrate, production period", "value": "sustained high cell viability"}, {"measurement": "Average Daily Specific Productivity", "setting": "[2]; Fed-batch, sodium butyrate bolus addition, maximal 2 mM", "value": "0.10 g/L/day ± 0.03"}, {"measurement": "Average Daily Specific Productivity", "setting": "[2]; RaMP, maximal sodium butyrate 2 mM", "value": "0.64 g/L/day ± 0.07"}, {"measurement": "Average daily yields using RaMP relative to fed-batch or traditional perfusion methods", "setting": "[2]; maximal sodium butyrate 2 mM", "value": "approximately 6 times"}, {"measurement": "average daily recombinant protein production", "setting": "[3]; 1 mM then 2 mM sodium butyrate, reached", "value": "over 0.6 g/L/day"}, {"measurement": "Average total production", "setting": "[3]; sodium butyrate 1 mM, day 8 in culture", "value": 102, "unit": "mg/L/day"}, {"measurement": "Average total production", "setting": "[3]; sodium butyrate 1 mM, day 9 in culture", "value": 159, "unit": "mg/L/day"}, {"measurement": "Average total production", "setting": "[3]; sodium butyrate 1 mM, day 10 in culture", "value": 343, "unit": "mg/L/day"}, {"measurement": "Average total production", "setting": "[3]; sodium butyrate 2 mM, day 11 in culture", "value": 381, "unit": "mg/L/day"}, {"measurement": "Average total production", "setting": "[3]; sodium butyrate 2 mM, day 12 in culture", "value": 332, "unit": "mg/L/day"}, {"measurement": "Average total production", "setting": "[3]; sodium butyrate 2 mM, day 13 in culture", "value": 590, "unit": "mg/L/day"}, {"measurement": "Average total production", "setting": "[3]; sodium butyrate 2 mM, day 14 in culture", "value": 498, "unit": "mg/L/day"}, {"measurement": "Average total production", "setting": "[3]; sodium butyrate 2 mM, day 15 in culture", "value": 577, "unit": "mg/L/day"}, {"measurement": "Average total production", "setting": "[3]; sodium butyrate 2 mM, day 16 in culture", "value": 549, "unit": "mg/L/day"}, {"measurement": "Average total production", "setting": "[3]; sodium butyrate 2 mM, day 17 in culture", "value": 526, "unit": "mg/L/day"}, {"measurement": "Average total production", "setting": "[3]; sodium butyrate 2 mM, day 18 in culture", "value": 684, "unit": "mg/L/day"}, {"measurement": "cell growth and cell concentration", "setting": "[4]", "value": "the cells stopped growing and cell concentration declined"}, {"measurement": "cell viability", "setting": "[5]", "value": "less than 45%"}, {"measurement": "cell density", "setting": "[6]; RaMP, 1 mM then 2 mM sodium butyrate, over the production run", "value": "> 4.5×10^7 cells/ml"}, {"measurement": "cell viability", "setting": "[6]; after 1 mM sodium butyrate perfused on day 8", "value": "≥ 85", "unit": "%"}, {"measurement": "cell viability", "setting": "[6]; sustained concentration of 2 mM sodium butyrate in the media (from day 11)", "value": "above 85%"}]}
